# Assay results reported in ChEMBL document CHEMBL3638593, “Macrocycles as factor XIa inhibitors” (2015).
# Target: Coagulation factor XI (Homo sapiens, UniProt P03951)
# Assay: In Vitro Assay: The effectiveness of compounds of the present invention as inhibitors of the coagulation Factors XIa, VIIa, IXa, Xa, XIIa, plasma kallikrein or thrombin, can be determined using a relevant purified serine protease, respectively, and an appropriate synthetic substrate. The rate of hydrolysis of the chromogenic or fluorogenic substrate by the relevant serine protease was measured both in the absence and presence of compounds of the present invention. […] A decrease in the rate of absorbance or fluorescence change in the presence of inhibitor is indicative of enzyme inhibition. Such methods are known to one skilled in the art.
# Chain of Coagulation factor XI (P03951 19-387 limits assumed): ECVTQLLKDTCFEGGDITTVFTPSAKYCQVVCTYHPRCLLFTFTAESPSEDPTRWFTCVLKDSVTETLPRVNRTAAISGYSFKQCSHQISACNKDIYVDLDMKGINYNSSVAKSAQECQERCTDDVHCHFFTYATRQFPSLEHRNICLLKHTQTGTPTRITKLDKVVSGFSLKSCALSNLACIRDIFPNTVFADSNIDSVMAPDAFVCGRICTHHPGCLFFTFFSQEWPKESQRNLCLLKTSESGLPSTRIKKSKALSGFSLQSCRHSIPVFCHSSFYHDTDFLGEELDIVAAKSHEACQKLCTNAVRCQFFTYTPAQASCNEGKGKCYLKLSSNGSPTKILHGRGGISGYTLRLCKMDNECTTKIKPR
# Chain of Coagulation factor XI (P03951 388-625 limits assumed): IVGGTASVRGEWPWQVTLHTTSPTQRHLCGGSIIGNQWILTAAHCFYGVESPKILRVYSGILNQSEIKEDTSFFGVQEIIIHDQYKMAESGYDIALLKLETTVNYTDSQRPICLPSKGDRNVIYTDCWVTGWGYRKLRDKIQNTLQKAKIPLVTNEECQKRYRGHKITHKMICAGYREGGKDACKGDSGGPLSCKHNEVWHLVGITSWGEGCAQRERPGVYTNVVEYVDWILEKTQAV
structure (smiles),measurement,value
O=C(/C=C/c1cc(Cl)ccc1-n1cnnn1)N[C@H]1CCCCC(=O)Nc2cc3[nH]ncc3cc2-c2c[nH]c1n2,Ki,183 nM
